Laboratory results taken from patent US20070092546A1, “Thiamin based insect repellant” (Violet Fire, LLC, priority 2005, published 2007).
Counter-ions that a name gives are not always drawn. Like-named read-outs stand apart in the source and are kept apart here.

Legend:
[1] = cited from earlier work
insects = details: stated without test data
From the text: Thiamin hydrochloride is soluble in water and glycerin and other polyhydric alcohols.

[2] = 100 mg/day consumed over a number of days; cited from earlier work
[3] = test system: mosquitoes and other biting insects; details: ingested doses of up to 100 mg/day for several weeks; cited from earlier work

Row | Compound | solubility ([1]; in organic solvents) | solubility ([1]; in water and glycerin and other polyhydric alcohols) | insect repellant properties (insects) | adverse effects of ingestion [2] | insect repellency on the human skin [3]
1 | Cc1ncc(C[n+]2csc(CCO)c2C)c(N)n1 [Thiamin hydrochloride] | not readily soluble | soluble | have insect repellant properties | – | –
2 | Cc1ncc(C[n+]2csc(CCO)c2C)c(N)n1 [thiamin, Thiamin] | – | – | – | can cause anaphylactic stock, allergic reactions and skin rashes | will repel mosquitoes and other biting insects from the skin
3 | Thiamin mononitrate | – | – | have insect repellant properties | – | –
